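Grown in 96-well plates, cells were treated for 48 hours with each compound at five concentrations. Insufficient inhibition: endpoint recorded as highest concentration tested. The concentration for 50% growth inhibition is given as GI50.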 Calls of active or inactive are those of the source. Rule as the data show it: active = GI50 up to about 1.1 µM and inactive = higher.
Columns and labels:
Experiment in all cases: growth of human tumour cells (NCI), 48 h
DMS-273 = system: DMS-273
DMS-114 = system: DMS-114
XF498 = system: XF498
RXF 631 = system: RXF 631
DLD-1 = system: DLD-1
M19-MEL = system: M19-MEL
LXFL 529 = system: LXFL 529
KM-20L2 = system: KM-20L2
HOP-18 = system: HOP-18

Structure (SMILES) | GI50 (DMS-273) | GI50 (DMS-114) | GI50 (XF498) | GI50 (RXF 631) | GI50 (DLD-1) | GI50 (M19-MEL) | GI50 (LXFL 529) | GI50 (KM-20L2) | GI50 (HOP-18)
O=c1cc[nH]c2ccc3nn[nH]c3c12 | > 100 µM (inactive) | > 100 µM (inactive) | > 100 µM (inactive) | > 100 µM (inactive) | > 100 µM (inactive) | > 100 µM (inactive) | > 100 µM (inactive) | > 100 µM (inactive) | > 100 µM (inactive)
CN(C)CCCn1c2c3ccccc3ccc2c2oc(=O)c3ccccc3c21 | 1.49 µM (inactive) | 1.77 µM (inactive) | 3.85 µM (inactive) | – | 1.47 µM (inactive) | 3.13 µM (inactive) | 3.56 µM (inactive) | 1.39 µM (inactive) | 16.6 µM (inactive)
O=C1/C(=C\c2ccccc2)CN(C(=O)CCN2CCCCC2)C/C1=C/c1ccccc1 | 1.44 µM (inactive) | 1.23 µM (inactive) | 1.73 µM (inactive) | 1.47 µM (inactive) | 1.19 µM (inactive) | 0.658 µM (active) | 1.32 µM (inactive) | 0.811 µM (active) | 3.03 µM (inactive)
O=C(c1ccco1)N(C(=S)N1CCN(c2ccccn2)CC1)c1ccccc1 | > 100 µM (inactive) | 66.1 µM (inactive) | 60.7 µM (inactive) | – | > 100 µM (inactive) | > 100 µM (inactive) | > 100 µM (inactive) | > 100 µM (inactive) | > 100 µM (inactive)
COc1ccc(CC#N)c(OCc2ccccc2)c1 | 49.4 µM (inactive) | 30.8 µM (inactive) | – | – | 28.1 µM (inactive) | 29.3 µM (inactive) | 20.2 µM (inactive) | 31.3 µM (inactive) | 14.2 µM (inactive)
CCN(C1=CC(=O)NC2CCCCN12)c1ccccc1 (centres undefined) | > 100 µM (inactive) | > 100 µM (inactive) | > 100 µM (inactive) | > 100 µM (inactive) | > 100 µM (inactive) | > 100 µM (inactive) | > 100 µM (inactive) | > 100 µM (inactive) | > 100 µM (inactive)
CC12CCCCC1(C)C2Sc1ccccc1 (centres undefined) | 47.2 µM (inactive) | 30.7 µM (inactive) | 27.3 µM (inactive) | 51.5 µM (inactive) | 61.2 µM (inactive) | 35.9 µM (inactive) | 63.8 µM (inactive) | > 100 µM (inactive) | 63.1 µM (inactive)
O=C1c2cccc(NCCNCCO)c2C(=O)c2cccc(NCCNCCO)c21 | 2.91 µM (inactive) | 0.368 µM (active) | 0.556 µM (active) | 3.13 µM (inactive) | 3.18 µM (inactive) | – | 0.643 µM (active) | 1.18 µM (inactive) | 2.15 µM (inactive)
CC1=C(C(=O)Nc2c(C)cccc2C)C(c2ccccc2Cl)C(C(=O)Nc2c(C)cccc2C)=C(C)N1 | > 100 µM (inactive) | > 100 µM (inactive) | > 100 µM (inactive) | – | > 100 µM (inactive) | > 100 µM (inactive) | > 100 µM (inactive) | > 100 µM (inactive) | –
NC1=NN(c2ccccc2)C(=O)C1C(=O)C(=O)Nc1ccccc1 (centres undefined) | > 100 µM (inactive) | > 100 µM (inactive) | > 100 µM (inactive) | – | > 100 µM (inactive) | > 100 µM (inactive) | > 100 µM (inactive) | > 100 µM (inactive) | > 100 µM (inactive)
CCOc1ccccc1NC(=O)C1=C(C)NC(C)=C(C(=O)Nc2ccccc2OCC)C1c1ccc([N+](=O)[O-])cc1 | 71.4 µM (inactive) | 65.9 µM (inactive) | – | > 100 µM (inactive) | > 100 µM (inactive) | > 100 µM (inactive) | 70.5 µM (inactive) | > 100 µM (inactive) | > 100 µM (inactive)
COc1c(OC(C)=O)ccc(/C=C2\N=C(C)OC2=O)c1[N+](=O)[O-] | > 100 µM (inactive) | – | – | > 100 µM (inactive) | > 100 µM (inactive) | > 100 µM (inactive) | > 100 µM (inactive) | > 100 µM (inactive) | > 100 µM (inactive)
C(=N\CC/N=C/c1cccc2ccccc12)/c1cccc2ccccc12 | > 100 µM (inactive) | > 100 µM (inactive) | > 100 µM (inactive) | – | > 100 µM (inactive) | > 100 µM (inactive) | > 100 µM (inactive) | > 100 µM (inactive) | > 100 µM (inactive)
C[C@H](OCc1ccccc1)C(=O)N1CCS(=O)(=O)N2CCC[C@@H]2C1=O | – | > 100 µM (inactive) | 0.746 µM (active) | > 100 µM (inactive) | > 100 µM (inactive) | > 100 µM (inactive) | > 100 µM (inactive) | > 100 µM (inactive) | > 100 µM (inactive)
CCC(C(=O)O)c1ccc(OCc2ccccc2)cc1 (centres undefined) | > 100 µM (inactive) | > 100 µM (inactive) | > 100 µM (inactive) | – | > 100 µM (inactive) | – | > 100 µM (inactive) | > 100 µM (inactive) | –
Cc1ccc(NC(=O)C(=O)CC(=O)c2c(C)[n+]([O-])c3ccccc3[n+]2[O-])cc1C | > 100 µM (inactive) | – | – | – | – | 91.2 µM (inactive) | > 100 µM (inactive) | 91.8 µM (inactive) | 48.9 µM (inactive)
c1ccc(C2OCCO2)c(OCCOc2cc(OCCOc3ccccc3C3OCCO3)c(OCCOc3ccccc3C3OCCO3)cc2OCCOc2ccccc2C2OCCO2)c1 | 15.3 µM (inactive) | 11.8 µM (inactive) | – | – | > 100 µM (inactive) | > 100 µM (inactive) | 29.2 µM (inactive) | > 100 µM (inactive) | > 100 µM (inactive)
Cc1cc2ncn(-c3nc4ccccc4nc3C(C#N)S(C)(=O)=O)c2cc1C (centres undefined) | > 100 µM (inactive) | > 100 µM (inactive) | > 100 µM (inactive) | – | > 100 µM (inactive) | > 100 µM (inactive) | > 100 µM (inactive) | > 100 µM (inactive) | –
CCN(CC)CCCCC1CCN(CC(=O)N2c3cc(Cl)ccc3NC(=O)CC2C)CC1 (centres undefined) | > 100 µM (inactive) | – | – | – | > 100 µM (inactive) | > 100 µM (inactive) | > 100 µM (inactive) | 40.9 µM (inactive) | > 100 µM (inactive)
CCCCNC(=O)C1C(=O)N(CCCC)C(=O)/C1=N\N (centres undefined) | > 100 µM (inactive) | > 100 µM (inactive) | > 100 µM (inactive) | > 100 µM (inactive) | – | > 100 µM (inactive) | > 100 µM (inactive) | > 100 µM (inactive) | > 100 µM (inactive)
O=C(O)/C(=C/c1c(O)ccc2ccccc12)c1csc(-c2nc(/C(=C\c3c(O)ccc4ccccc34)C(=O)O)cs2)n1 | – | 10 µM (inactive) | – | – | 12 µM (inactive) | 6.17 µM (inactive) | 13.6 µM (inactive) | 19.4 µM (inactive) | –
ClC(Cl)[Si]12OCCN(CCO1)CCO2 | > 100 µM (inactive) | > 100 µM (inactive) | – | > 100 µM (inactive) | > 100 µM (inactive) | – | > 100 µM (inactive) | – | > 100 µM (inactive)
COc1ccc2[nH]c(=O)cc(C)c2c1[N+](=O)[O-] | > 100 µM (inactive) | > 100 µM (inactive) | > 100 µM (inactive) | > 100 µM (inactive) | 84.1 µM (inactive) | > 100 µM (inactive) | > 100 µM (inactive) | > 100 µM (inactive) | –
C=CCC1OC(C)(C)Oc2ccc(OCOCCOC)cc21 (centres undefined) | – | > 100 µM (inactive) | – | – | – | – | > 100 µM (inactive) | – | –
O=C1c2cccc(NCCCNCCO)c2C(=O)c2cccc(NCCCNCCO)c21 | 2.31 µM (inactive) | – | – | – | 2.34 µM (inactive) | – | – | 2.75 µM (inactive) | –
Cc1ccccc1NC(=O)C1C(=O)N(c2ccccc2C)C(=O)/C1=N\NC(N)=O (centres undefined) | > 100 µM (inactive) | > 100 µM (inactive) | – | – | > 100 µM (inactive) | > 100 µM (inactive) | > 100 µM (inactive) | > 100 µM (inactive) | 92.3 µM (inactive)
CCN(CC)CCNC(=O)c1ccc([N+](=O)[O-])cc1OC | > 100 µM (inactive) | > 100 µM (inactive) | – | – | > 100 µM (inactive) | > 100 µM (inactive) | > 100 µM (inactive) | > 100 µM (inactive) | –
